# Reference: ChEMBL document CHEMBL1201862, “PubChem BioAssay data set” (2004)
#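 These data come from cells grown in 96-well plates and exposed to compound for 48 hours at five concentrations. The concentration for 50% growth inhibition is given as GI50.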 Calls of active or inactive are those of the source. No stated cut-off is given here; in the data, active = GI50 up to about 1.1 µM and inactive = higher.
# Experiments:
# Test in all cases: growth of human tumour cells (NCI), 48 h
# IGROV-1 = system: IGROV-1
# T47D = system: T47D
# SNB-19 = system: SNB-19
# A498 = system: A498
# HT-29 = system: HT-29
# UACC-62 = system: UACC-62
# NCI-H23 = system: NCI-H23
# OVCAR-8 = system: OVCAR-8
# RXF 393 = system: RXF 393
# SK-MEL-2 = system: SK-MEL-2
# SNB-75 = system: SNB-75
# OVCAR-5 = system: OVCAR-5
# EKVX = system: EKVX
# UO-31 = system: UO-31
# MCF7 = system: MCF7
# MOLT-4 = system: MOLT-4
# HOP-62 = system: HOP-62
# OVCAR-3 = system: OVCAR-3
# UACC-257 = system: UACC-257
# HOP-92 = system: HOP-92
SMILES,GI50 (IGROV-1),GI50 (T47D),GI50 (SNB-19),GI50 (A498),GI50 (HT-29),GI50 (UACC-62),GI50 (NCI-H23),GI50 (OVCAR-8),GI50 (RXF 393),GI50 (SK-MEL-2),GI50 (SNB-75),GI50 (OVCAR-5),GI50 (EKVX),GI50 (UO-31),GI50 (MCF7),GI50 (MOLT-4),GI50 (HOP-62),GI50 (OVCAR-3),GI50 (UACC-257),GI50 (HOP-92)
CC1(O)CC2(O)C=CC3=C(C(=O)c4cccc(O)c4C3=O)C2(O)C(=O)C1O (centres undefined),4.6 µM (inactive),1.64 µM (inactive),16.6 µM (inactive),7.26 µM (inactive),2.43 µM (inactive),2.94 µM (inactive),2.92 µM (inactive),3.56 µM (inactive),0.964 µM (active),4.18 µM (inactive),8.38 µM (inactive),5.04 µM (inactive),2.44 µM (inactive),1.99 µM (inactive),0.624 µM (active),0.56 µM (active),21.6 µM (inactive),2.28 µM (inactive),1.25 µM (inactive),1.07 µM (active)
COc1ccc(OC)c2sc(N3C(=O)/C(=C/c4cccc(Oc5ccccc5)c4)N=C3c3ccccc3)nc12,> 100 µM (inactive),47 µM (inactive),> 100 µM (inactive),> 100 µM (inactive),> 100 µM (inactive),> 100 µM (inactive),> 100 µM (inactive),76 µM (inactive),> 100 µM (inactive),> 100 µM (inactive),> 100 µM (inactive),> 100 µM (inactive),> 100 µM (inactive),> 100 µM (inactive),35.2 µM (inactive),31.9 µM (inactive),> 100 µM (inactive),> 100 µM (inactive),71.3 µM (inactive),> 100 µM (inactive)
Cc1ccc(C(=O)O)c(/C=C2\Cc3ccc(C)cc3C2=O)c1,> 100 µM (inactive),92 µM (inactive),45.1 µM (inactive),65.9 µM (inactive),34.8 µM (inactive),69.2 µM (inactive),75.3 µM (inactive),61.5 µM (inactive),42.3 µM (inactive),32 µM (inactive),34 µM (inactive),28.4 µM (inactive),98.9 µM (inactive),62.1 µM (inactive),63.5 µM (inactive),33.6 µM (inactive),44.2 µM (inactive),31.8 µM (inactive),78.5 µM (inactive),> 100 µM (inactive)
COc1ccc(C(NS(=O)(=O)c2ccc(C)cc2)c2c(C(CBr)OC)c3ccccc3n2S(=O)(=O)c2ccccc2)cc1OC (centres undefined),> 100 µM (inactive),> 100 µM (inactive),> 100 µM (inactive),> 100 µM (inactive),> 100 µM (inactive),> 100 µM (inactive),> 100 µM (inactive),> 100 µM (inactive),> 100 µM (inactive),> 100 µM (inactive),34.7 µM (inactive),> 100 µM (inactive),> 100 µM (inactive),> 100 µM (inactive),> 100 µM (inactive),> 100 µM (inactive),> 100 µM (inactive),> 100 µM (inactive),> 100 µM (inactive),85.5 µM (inactive)
NC(=O)c1cc2cc(Cl)cc(Cl)c2o/c1=N\c1ccc(F)cc1,26.4 µM (inactive),18.3 µM (inactive),16.9 µM (inactive),19.4 µM (inactive),29.6 µM (inactive),23.3 µM (inactive),14.7 µM (inactive),37.6 µM (inactive),16.8 µM (inactive),16.3 µM (inactive),14.8 µM (inactive),19.6 µM (inactive),15.2 µM (inactive),25.8 µM (inactive),19.8 µM (inactive),12.5 µM (inactive),27.6 µM (inactive),21.2 µM (inactive),19.5 µM (inactive),31.9 µM (inactive)
COc1ccc(C(=O)/C=C2\c3ccccc3C(=O)N2C)cc1,28 µM (inactive),27 µM (inactive),> 100 µM (inactive),69 µM (inactive),35.6 µM (inactive),41.1 µM (inactive),55.3 µM (inactive),64.4 µM (inactive),22.9 µM (inactive),> 100 µM (inactive),22.8 µM (inactive),> 100 µM (inactive),26.8 µM (inactive),44.3 µM (inactive),21 µM (inactive),58.7 µM (inactive),60.4 µM (inactive),98.2 µM (inactive),31.3 µM (inactive),24.5 µM (inactive)
CCOC(=O)C(Cc1ccc(OC(=O)c2ccc(OC)cc2)cc1)NC(=O)C(F)(F)F (centres undefined),45.3 µM (inactive),> 100 µM (inactive),> 100 µM (inactive),> 100 µM (inactive),> 100 µM (inactive),> 100 µM (inactive),45.2 µM (inactive),> 100 µM (inactive),27.9 µM (inactive),> 100 µM (inactive),20.7 µM (inactive),> 100 µM (inactive),> 100 µM (inactive),> 100 µM (inactive),> 100 µM (inactive),> 100 µM (inactive),35.5 µM (inactive),> 100 µM (inactive),> 100 µM (inactive),45.8 µM (inactive)
Nc1cc(C2CCCc3c2[nH]c2ccccc32)ccc1O (centres undefined),38.2 µM (inactive),14.3 µM (inactive),> 100 µM (inactive),> 100 µM (inactive),23.4 µM (inactive),10.8 µM (inactive),36.5 µM (inactive),24.3 µM (inactive),55.8 µM (inactive),31.9 µM (inactive),52 µM (inactive),24.1 µM (inactive),44 µM (inactive),10.5 µM (inactive),24.8 µM (inactive),4.79 µM (inactive),74.6 µM (inactive),22.3 µM (inactive),42.4 µM (inactive),56.8 µM (inactive)
NN/C(=N\S(=O)(=O)c1ccc(-c2ccccn2)s1)Nc1ccc(Cl)cc1,> 100 µM (inactive),38.1 µM (inactive),42.1 µM (inactive),> 100 µM (inactive),> 100 µM (inactive),> 100 µM (inactive),> 100 µM (inactive),83.6 µM (inactive),30.5 µM (inactive),> 100 µM (inactive),25.6 µM (inactive),> 100 µM (inactive),53.6 µM (inactive),43.9 µM (inactive),> 100 µM (inactive),32.7 µM (inactive),38.9 µM (inactive),73.8 µM (inactive),> 100 µM (inactive),68.5 µM (inactive)
O=C1C(O)=C(C(CCc2ccccc2)C2=C(O)C(=O)c3ccccc3C2=O)C(=O)c2ccccc21,34.6 µM (inactive),> 100 µM (inactive),> 100 µM (inactive),76.4 µM (inactive),18.8 µM (inactive),13.7 µM (inactive),3.65 µM (inactive),57.1 µM (inactive),> 100 µM (inactive),35.5 µM (inactive),45.8 µM (inactive),> 100 µM (inactive),61.1 µM (inactive),> 100 µM (inactive),40.2 µM (inactive),,28.8 µM (inactive),30.7 µM (inactive),13.4 µM (inactive),40 µM (inactive)
O=C1OCC2OC(=O)c3cc(O)c(O)c(O)c3-c3c(O)c(O)c(O)c4c3C(=O)OC(C2OC(=O)c2cc(O)c(O)c(O)c2-c2c1cc(O)c(O)c2O)C1OC(=O)C2C4=C(O)C(=O)C23Oc2cc(O)c4c(c2[C@H]13)O[C@H](c1ccc(O)c(O)c1)[C@@H](O)C4 (some centres undefined),26.4 µM (inactive),20.7 µM (inactive),41.4 µM (inactive),> 100 µM (inactive),16.2 µM (inactive),20.4 µM (inactive),19.8 µM (inactive),22.2 µM (inactive),16.8 µM (inactive),20.2 µM (inactive),28.4 µM (inactive),14.6 µM (inactive),12.7 µM (inactive),17.8 µM (inactive),23.1 µM (inactive),22.6 µM (inactive),41.7 µM (inactive),30.1 µM (inactive),29 µM (inactive),25.9 µM (inactive)
O=[N+]([O-])c1oc2ccc3ccccc3c2c1CCO,1.32 µM (inactive),13.2 µM (inactive),7.24 µM (inactive),0.166 µM (active),2.94 µM (inactive),2.87 µM (inactive),3.23 µM (inactive),3.44 µM (inactive),1.58 µM (inactive),1.85 µM (inactive),4.41 µM (inactive),7.23 µM (inactive),0.447 µM (active),1.64 µM (inactive),3.22 µM (inactive),1.04 µM (active),16.6 µM (inactive),12.6 µM (inactive),1.94 µM (inactive),3.5 µM (inactive)
C=C1[C@H](OCC(C)C)[C@@H](O)[C@@H](OC(=O)c2cccnc2)C(C)(C)/C=C/[C@H](C)[C@H](OC(C)=O)[C@@]2(O)C[C@@](C)(OC(C)=O)[C@H](OC(=O)c3ccccc3)[C@@H]2[C@H]1OC(C)=O,1.36 µM (inactive),> 2.96 µM (inactive),3.1 µM (inactive),0.482 µM (active),0.0662 µM (active),2.07 µM (inactive),1.95 µM (inactive),1.22 µM (inactive),4.24 µM (inactive),> 2.13 µM (inactive),0.134 µM (active),> 2.43 µM (inactive),1.04 µM (active),0.54 µM (active),1.8 µM (inactive),0.138 µM (active),0.0681 µM (active),1.12 µM (active),2.9 µM (inactive),0.723 µM (active)
